Measurements from BindingDB's records for PubMed 35114538 (Institute For Pharmaceutical Research Saarland (Hips), 2022).
Where a SMILES comes first, the peptide text is derived from it. Bridges are numbered along the chain shown (N, C = ends). Triazole bridges read from a SMILES are 1,4-linked. [ ]: non-standard residue; d: D form. Ala(indol-2-yl) = N[C@@H](Cc1cc2ccccc2[nH]1)C(=O)O; Dap(N3) = [N-]=[N+]=NC[C@H](N)C(=O)O; Aha = [N-]=[N+]=NCC[C@H](N)C(=O)O; Pra = C#CC[C@H](N)C(=O)O

Biological target: Carbon storage regulator homolog RsmA (Pseudomonas aeruginosa)
Assay: Binding affinity towards Pseudomonas aeruginosa RsmA measured by fluorescence polarization assay

Row | Compound | IC50
1 | CC(=O)N[C@H](C(=O)N[C@H]1Cc2cn(nn2)C[C@@H](C(=O)N[C@@H](Cc2c[nH]c3ccccc23)C(N)=O)NC(=O)[C@H](CC(C)C)NC(=O)[C@H](CCC(=O)O)NC(=O)[C@H](CO)NC1=O)C(C)C (Ac-V[Pra]SEL[Dap(N3)]W-NH2; triazole 2-6) | 20 µM
2 | CC(=O)N[C@H](C(=O)N[C@H]1Cc2cn(nn2)CC[C@@H](C(=O)N[C@@H](Cc2c[nH]c3ccccc23)C(N)=O)NC(=O)[C@H](CC(C)C)NC(=O)[C@H](CCC(=O)O)NC(=O)[C@H](CO)NC1=O)C(C)C (Ac-V[Pra]SEL[Aha]W-NH2; triazole 2-6) | 30.2 µM
3 | CC(=O)N[C@H](C(=O)N[C@H]1CSSC[C@@H](C(=O)N[C@@H](Cc2cc3ccccc3[nH]2)C(N)=O)NC(=O)[C@H](CC(C)C)NC(=O)[C@H](CCC(=O)O)NC(=O)[C@H](CO)NC1=O)C(C)C (Ac-VCSELC[Ala(indol-2-yl)]-NH2; disulfide 2-6) | 272 µM
4 | CC(=O)N[C@H](C(=O)N[C@H]1Cc2cnnn2CC[C@@H](C(=O)N[C@@H](Cc2c[nH]c3ccccc23)C(N)=O)NC(=O)[C@H](CC(C)C)NC(=O)[C@H](CCC(=O)O)NC(=O)[C@H](CO)NC1=O)C(C)C | 44.4 µM
5 | CC(=O)N[C@H](C(=O)N[C@H]1Cn2cc(nn2)C[C@@H](C(=O)N[C@@H](Cc2c[nH]c3ccccc23)C(N)=O)NC(=O)[C@H](CC(C)C)NC(=O)[C@H](CCC(=O)O)NC(=O)[C@H](CO)NC1=O)C(C)C (Ac-V[Dap(N3)]SEL[Pra]W-NH2; triazole 2-6) | 22.8 µM
6 | CC(=O)N[C@H](C(=O)N[C@H]1CCn2nncc2C[C@@H](C(=O)N[C@@H](Cc2c[nH]c3ccccc23)C(N)=O)NC(=O)[C@H](CC(C)C)NC(=O)[C@H](CCC(=O)O)NC(=O)[C@H](CO)NC1=O)C(C)C | 37 µM
